Each compound was assayed on B cell receptor-mediated activation of B cells in human blood (CD69 expression) (assay: Inhibition of B cell activation in whole blood measured by CD69 expression). Conditions: anti-IgM stimulation, 20 h, 50% decrease of CD69-positive cells that are also CD20-positive.
Format: cell-based
Protocol: Inhibition of B Cell Activation in Whole Blood Measured by CD69 Expression
A procedure to test the ability of Btk inhibitors to suppress B cell receptor-mediated activation of B cells in human blood is as follows:
Human whole blood (HWB) is obtained from healthy volunteers, with the following restrictions: 24 hr drug-free, non-smokers. Blood is collected by venipuncture into Vacutainer tubes anticoagulated with sodium heparin. Test compounds are diluted to ten times the desired starting drug concentration in PBS (20×), followed by three-fold serial dilutions in 10% DMSO in PBS to produce a nine point dose-response curve. 5.5 μl of each compound dilution is added in duplicate to a 2 ml 96-well V bottom plate (Analytical Sales and Services, #59623-23); 5.5 μl of 10% DMSO in PBS is added to control and no-stimulus wells. HWB (100 μl) is added to each well, and after mixing the plates are incubated at 37 C, 5% CO2, 100% humidity for 30 minutes. Goat F(ab′)2 anti-human IgM (Southern Biotech, #2022-14) (10 μl of a 500 μg/ml solution, 50 μg/ml final concentration) is added to each well (except the no-stimulus wells) with mixing and the plates are incubated for an additional 20 hours.
At the end of the 20 hour incubation, samples are incubated with florescent-probe-labeled anti-bodies (15 μl PE Mouse anti-Human CD20, BD Pharmingen, #555623, and/or 20 ul APC Mouse anti-Human CD69, BD Pharmingen #555533) for 30 minutes, at 37 C, 5% CO2, 100% humidity. Included are induced control, unstained and single stains for compensation adjustments and initial voltage settings. Samples are then lysed with 1 ml of 1× Pharmingen Lyse Buffer (BD Pharmingen #555899), and plates are centrifuged at 1800 rpm for 5 minutes. Supernatants are removed via suction and the remaining pellets are lysed again with another 1 ml of 1× Pharmingen Lyse Buffer, and plates are spun down as before. Supernatants are aspirated and remaining pellets are washed in FACs buffer (PBS+1% FBS). After a final spin, the supernantants are removed and pellets are resuspended in 180 μl of FACs buffer. Samples are transferred to a 96 well plate suitable to be run on the HTS 96 well system on the BD LSR II flow cytometer.
Using appropriate excitation and emission wavelengths for the fluorophores used, data are acquired and percent positive cell values are obtained using Cell Quest Software. Results are initially analyzed by FACS analysis software (Flow Jo). […] The IC50 values are calculated using XLfit software version 3, equation 201.

| Structure (SMILES) | IC50 [nM] |
| --- | --- |
| Cn1cc(-c2cccc(-n3ccc4cc(C5CC5)cc(Cl)c4c3=O)c2CO)cc(Nc2ccc(C(=O)N3CCOCC3)cn2)c1=O [Example I-53, 8-Chloro-6-cyclopropyl-2-(2-hydroxymethyl-3-{1-methyl-5-[5-(morpholine-4-carbonyl)-pyridin-2-ylamino]-6-oxo-1,6-dihydro-pyridin-3-yl}-phenyl)-2H-isoquinolin-1-one] | 609 |
| Cn1cc(-c2cccc(-n3ccc4cc(C5CC5)cc(F)c4c3=O)c2CO)cc(Nc2ccc(C(C)(C)C(=O)O)cn2)c1=O [Example I-68, 2-(6-{5-[3-(6-Cyclopropyl-8-fluoro-1-oxo-1H-isoquinolin-2-yl)-2-hydroxymethyl-phenyl]-1-methyl-2-oxo-1,2-dihydro-pyridin-3-ylamino}-pyridin-3-yl)-2-methyl-propionic acid] | 213 |
| CC(C)n1ccc(Nc2cc(-c3cccc(-n4ncc5cc(C(C)(C)C)cc(F)c5c4=O)c3CO)cn(C)c2=O)nc1=O [Example I-38, 6-tert-Butyl-8-fluoro-2-{2-hydroxymethyl-3-[5-(1-isopropyl-2-oxo-1,2-dihydro-pyrimidin-4-ylamino)-1-methyl-6-oxo-1,6-dihydro-pyridin-3-yl]-phenyl}-2H-phthalazin-1-one] | 67 |
| Cn1ccc(Nc2cc(-c3cccc(-n4ncc5cc(C(C)(C)C)cc(F)c5c4=O)c3CO)cn(C)c2=O)nc1=O [Example I-23, 6-tert-Butyl-8-fluoro-2-{2-hydroxymethyl-3-[1-methyl-5-(1-methyl-2-oxo-1,2-dihydro-pyrimidin-4-ylamino)-6-oxo-1,6-dihydro-pyridin-3-yl]-phenyl}-2H-phthalazin-1-one] | 392 |
| Cn1cc(-c2cccc(-n3ccc4cc(C5CC5)cc(F)c4c3=O)c2CO)cc(Nc2ccc(C(C)(C)N)cn2)c1=O [Example I-76, 2-(3-{5-[5-(1-Amino-1-methyl-ethyl)-pyridin-2-ylamino]-1-methyl-6-oxo-1,6-dihydro-pyridin-3-yl}-2-hydroxymethyl-phenyl)-6-cyclopropyl-8-fluoro-2H-isoquinolin-1-one] | 40 |
| CC1CCOC(Nc2cc(-c3cccc(-n4ncc5cc(C(C)(C)C)cc(F)c5c4=O)c3CO)cn(C)c2=O)=N1 (centres unmarked) [Example I-46, 6-tert-Butyl-8-fluoro-2-{2-hydroxymethyl-3-[1-methyl-5-(4-methyl-5,6-dihydro-4H-[1,3]oxazin-2-ylamino)-6-oxo-1,6-dihydro-pyridin-3-yl]-phenyl}-2H-phthalazin-1-one] | 4220 |
| Cn1cc(-c2cccc(-n3ncc4cc(C(C)(C)C)cc(F)c4c3=O)c2CO)cc(Nc2ccc(C(=O)O)cn2)c1=O [Example I-34, 6-{5-[3-(6-tert-Butyl-8-fluoro-1-oxo-1H-phthalazin-2-yl)-2-hydroxymethyl-phenyl]-1-methyl-2-oxo-1,2-dihydro-pyridin-3-ylamino}-nicotinic acid] | 258 |
| Cc1c(-c2cc(Nc3ccc(N4CCN(C)CC4)cn3)c(=O)n(C)c2)cccc1-n1ncc2cc(C(C)(C)C)cc(F)c2c1=O [Example I-28, 6-tert-Butyl-8-fluoro-2-(2-methyl-3-{1-methyl-5-[5-(4-methyl-piperazin-1-yl)-pyridin-2-ylamino]-6-oxo-1,6-dihydro-pyridin-3-yl}-phenyl)-2H-phthalazin-1-one] | 181 |
| CC1CCN=C(Nc2cc(-c3cccc(-n4ncc5cc(C(C)(C)C)cc(F)c5c4=O)c3CO)cn(C)c2=O)O1 (centres unmarked) [Example I-49, 6-tert-Butyl-8-fluoro-2-{2-hydroxymethyl-3-[1-methyl-5-(6-methyl-5,6-dihydro-4H-[1,3]oxazin-2-ylamino)-6-oxo-1,6-dihydro-pyridin-3-yl]-phenyl}-2H-phthalazin-1-one] | 3130 |
| CCNC(=O)Nc1cc(-c2cccc(N3CCc4cc(C(C)(C)C#N)cc(F)c4C3=O)c2CO)cn(C)c1=O [Example I-5, 1-(5-{3-[6-(Cyano-dimethyl-methyl)-8-fluoro-1-oxo-3,4-dihydro-1H-isoquinolin-2-yl]-2-hydroxymethyl-phenyl}-1-methyl-2-oxo-1,2-dihydro-pyridin-3-yl)-3-ethyl-urea] | 1080 |

Now those with a lower IC50, led by results:

| IC50 [nM] | Structure (SMILES) |
| --- | --- |
| 34 | CNC(=O)C(C)(C)c1ccc(Nc2cc(-c3cccc(-n4ncc5cc(C(C)(C)C)cc(F)c5c4=O)c3CO)cn(C)c2=O)nc1 [Example I-32, 2-(6-{5-[3-(6-tert-Butyl-8-fluoro-1-oxo-1H-phthalazin-2-yl)-2-hydroxymethyl-phenyl]-1-methyl-2-oxo-1,2-dihydro-pyridin-3-ylamino}-pyridin-3-yl)-N-methyl-isobutyramide] |
| 33 | CNC(=O)C(C)(C)c1ccc(Nc2cc(-c3cccc(-n4ccc5cc(C6CC6)cc(F)c5c4=O)c3CO)cn(C)c2=O)nc1 [Example I-69, 2-(6-{5-[3-(6-Cyclopropyl-8-fluoro-1-oxo-1H-isoquinolin-2-yl)-2-hydroxymethyl-phenyl]-1-methyl-2-oxo-1,2-dihydro-pyridin-3-ylamino}-pyridin-3-yl)-N-methyl-isobutyramide] |
| 33 | Cn1cc(-c2cccc(-n3ncc4cc(C(C)(C)C)cc(F)c4c3=O)c2CO)cc(Nc2ccc3c(n2)CCNC3)c1=O [Example I-41, 6-tert-Butyl-8-fluoro-2-{2-hydroxymethyl-3-[1-methyl-6-oxo-5-(5,6,7,8-tetrahydro-[1,6]naphthyridin-2-ylamino)-1,6-dihydro-pyridin-3-yl]-phenyl}-2H-phthalazin-1-one] |
| 27 | CCC(O)(CC)c1cc(F)c2c(=O)n(-c3cccc(-c4cc(Nc5ccc(N6CCC(C)(O)CC6)cn5)c(=O)n(C)c4)c3CO)ccc2c1 [Example I-64, 6-(1-Ethyl-1-hydroxy-propyl)-8-fluoro-2-{2-hydroxymethyl-3-[5-(4-hydroxy-4-methyl-3,4,5,6-tetrahydro-2H-[1,3′]bipyridinyl-6′-ylamino)-1-methyl-6-oxo-1,6-dihydro-pyridin-3-yl]-phenyl}-2H-isoquinolin-1-one] |
| 20 | Cn1cc(-c2cccc(-n3ccc4cc(C5CC5)cc(F)c4c3=O)c2CO)cc(Nc2ccc(C(C)(C)O)cn2)c1=O [Example I-72, 6-Cyclopropyl-8-fluoro-2-(2-hydroxymethyl-3-{5-[5-(1-hydroxy-1-methyl-ethyl)-pyridin-2-ylamino]-1-methyl-6-oxo-1,6-dihydro-pyridin-3-yl}-phenyl)-2H-isoquinolin-1-one] |
| 16 | Cn1cc(-c2cccc(-n3ccc4cc(C5(C)CC5)cc(F)c4c3=O)c2CO)cc(Nc2ccc(C(=O)N3CCOCC3)cn2)c1=O [Example I-60, 8-Fluoro-2-(2-hydroxymethyl-3-{1-methyl-5-[5-(morpholine-4-carbonyl)-pyridin-2-ylamino]-6-oxo-1,6-dihydro-pyridin-3-yl}-phenyl)-6-(1-methyl-cyclopropyl)-2H-isoquinolin-1-one] |
| 16 | Cn1cc(-c2cccc(-n3ccc4cc(C(C)(C)C)cc(F)c4c3=O)c2CO)cc(Nc2ccc(C(=O)N3CCOCC3)cn2)c1=O [Example I-63, 6-tert-Butyl-8-fluoro-2-(2-hydroxymethyl-3-{1-methyl-5-[5-(morpholine-4-carbonyl)-pyridin-2-ylamino]-6-oxo-1,6-dihydro-pyridin-3-yl}-phenyl)-2H-isoquinolin-1-one] |
| 15 | CC(C)NCc1ccc(Nc2cc(-c3cccc(-n4ncc5cc(C(C)(C)C)cc(F)c5c4=O)c3CO)cn(C)c2=O)nc1 [Example I-43, 6-tert-Butyl-8-fluoro-2-(2-hydroxymethyl-3-{5-[5-(isopropylamino-methyl)-pyridin-2-ylamino]-1-methyl-6-oxo-1,6-dihydro-pyridin-3-yl}-phenyl)-2H-phthalazin-1-one] |
| 11 | Cn1cc(-c2cccc(-n3ncc4cc(C(C)(C)C)cc(F)c4c3=O)c2CO)cc(Nc2ccc(C(C)(C)C(=O)N3CCOCC3)cn2)c1=O [Example I-21, 6-tert-Butyl-2-(3-{5-[5-(1,1-dimethyl-2-morpholin-4-yl-2-oxo-ethyl)-pyridin-2-ylamino]-1-methyl-6-oxo-1,6-dihydro-pyridin-3-yl}-2-hydroxymethyl-phenyl)-8-fluoro-2H-phthalazin-1-one] |
| 10 | CC(O)Cn1cc(Nc2nc(-c3cccc(-n4ncc5cc(C(C)(C)C)cc(F)c5c4=O)c3CO)cn(C)c2=O)cn1 (centres unmarked) [Example I-83, 6-tert-Butyl-8-fluoro-2-(2-hydroxymethyl-3-{6-[1-(2-hydroxy-propyl)-1H-pyrazol-4-ylamino]-4-methyl-5-oxo-4,5-dihydro-pyrazin-2-yl}-phenyl)-2H-phthalazin-1-one] |
